Test results published in US6670363B1, “Azole compounds as therapeutic agents for fungal infections” (Ranbaxy Laboratories Limited, priority 2000, dated 2003).
Converted amounts (≈) assume the structure as drawn.

What was measured:
[1] = test system: Candida; experiment: In vitro MIC, NCCLS M27A, Candida species; format: cell-based; parameters: MIC, Candida albicans 1.549 / MIC, Candida albicans Y-01-19 / MIC, C. krusei 766-1 / MIC, C. krusei Q. C / MIC, Candida tropicalis ATCC / MIC, C. glabrata 90030: unit not given beside the values; MIC, Candida albicans A 26 / MIC, C. parapsilosis Q. C.: unit not given here; conditions: for MIC, C. glabrata 90030: C. glabrata strain 90030; for MIC, C. krusei 766-1: C. krusei strain 766-1; for MIC, C. krusei Q. C: C. krusei strain Q. C; for MIC, C. parapsilosis Q. C.: C. parapsilosis strain Q. C.; for MIC, Candida albicans 1.549: Candida albicans strain 1.549; for MIC, Candida albicans A 26: Candida albicans strain A 26; for MIC, Candida albicans Y-01-19: Candida albicans strain Y-01-19
[2] = test system: Cryptococcus neoformans; experiment: In vitro MIC, NCCLS M27A, Cryptococcus neoformans; format: cell-based; parameters: MIC, C. neoformans I: unit not given beside the values; MIC, C. neoformans M 106: unit not given here; conditions: for MIC, C. neoformans I: C. neoformans strain I; for MIC, C. neoformans M 106: C. neoformans strain M 106
[3] = test system: A. fumigatus s 1008; experiment: In vitro MIC, NCCLS M38P broth method (RPMI 1640/MOPS pH7), Aspergillus fumigatus; format: cell-based; conditions: A. fumigatus strain 1008
[4] = test system: Histoplasma capsulatum; format: cell-based

SMILES	MIC, C. glabrata 90030 [1]	MIC, C. krusei 766-1 [1]	MIC, C. krusei Q. C [1]	MIC, C. parapsilosis Q. C. [1]	MIC, Candida albicans 1.549 [1]	MIC, Candida albicans A 26 [1]	MIC, Candida albicans Y-01-19 [1]	MIC, Candida tropicalis ATCC [1]	MIC, C. neoformans I [2]	MIC, C. neoformans M 106 [2]	MIC, A. fumigatus 1008 [3]	MIC, H. capsulatum [4] [µg/mL]	melting point [°C]
O=c1n(-c2ccc(N3CCN(c4ccc([N+](=O)[O-])cc4[N+](=O)[O-])CC3)cc2)cnn1CC(O)(Cn1cncn1)c1ccc(F)cc1F (centres unmarked) [Compound 40, 2-[2-(2,4-Difluorophenyl)-2-hydroxy-3-(1H-1,2,4-triazol-1-yl)propyl]-4-{4-[4-(2,4-dinitrophenyl)-1-piperazinyl]phenyl}-3-(2H,4H)-1,2,4-triazolone]	0.80	6.25	1.56	0.05	0.40	<0.02	0.40	1.56	0.05	0.20	1.56	0.05 (≈ 0.0771 µM)	120 to 123
O=c1n(-c2ccc(N3CCN(c4ccc(Cl)cc4Cl)CC3)cc2)cnn1CC(O)(Cn1cncn1)c1ccc(F)cc1F (centres unmarked) [Compound 50, 2-[2-(2,4-Difluorophenyl)-2-hydroxy-3-(1H-1,2,4-triazol-1-yl)propyl]-4-{4-[4-(2,4-dichlorophenyl)-1-piperazinyl]phenyl}-3-(2H,4H)-1,2,4-triazolone]	0.50	0.50	0.25	<0.03	0.12	<0.03	0.12	<0.03	<0.03	<0.03	2.00	< 0.03	97 to 99
O=c1n(-c2ccc(N3CCN(c4ccc(F)c(Cl)c4)CC3)cc2)cnn1CC(O)(Cn1cncn1)c1ccc(F)cc1F (centres unmarked) [Compound 53, 2-[2-(2,4-Difluorophenyl)-2-hydroxy-3-(1H-1,2,4-triazol-1-yl)propyl]-4-{4-[4-(3-chloro-4-fluorophenyl)-1-piperazinyl]phenyl}-3-(2H,4H)-1,2,4-triazolone]	0.50	0.50	0.12	<0.03	0.06	<0.03	<0.03	<0.03	<0.03	<0.03	4.00	< 0.03	182 to 185
Cc1ccc(Cl)cc1N1CCN(c2ccc(-n3cnn(CC(O)(Cn4cncn4)c4ccc(F)cc4F)c3=O)cc2)CC1 (centres unmarked) [Compound 48, 2-[2-(2,4-Difluorophenyl)-2-hydroxy-3-(1H-1,2,4-triazol-1-yl)propyl]-4-{4-[4-(5-chloro-2-methylphenyl)-1-piperazinyl]phenyl}-3-(2H,4H)-1,2,4-triazolone]	1.00	1.00	0.50	0.12	0.50	<0.03	0.50	<0.03	<0.03	0.06	>16	0.25 (≈ 0.412 µM)	82 to 87
O=c1n(-c2ccc(N3CCN(c4ccc(F)c(F)c4F)CC3)cc2)cnn1CC(O)(Cn1cncn1)c1ccc(F)cc1F (centres unmarked) [Compound 63, 2-[2-(2,4-Difluorophenyl)-2-hydroxy-3-(1H-1,2,4-triazol-1-yl)propyl]-4-{4-[4-(2,3,4-trifluorophenyl)-1-piperazinyl]phenyl}-3-(2H,4H)-1,2,4-triazolone]	0.50	8.00	0.25	<0.03	0.06	<0.03	0.12	<0.03	<0.03	<0.03	>16	< 0.03	186 to 187
O=c1n(-c2ccc(N3CCN(c4ccc(O)cc4)CC3)cc2)cnn1CC(O)(Cn1cncn1)c1ccc(F)cc1F (centres unmarked) [Compound 44, 2-[2-(2,4-Difluorophenyl)-2-hydroxy-3-(1H-1,2,4-triazol-1-yl)propyl]-4-{4-[4-(4-hydroxyphenyl)-1-piperazinyl]phenyl}-3-(2H,4H)-1,2,4-triazolone]	6.25	>12.5	6.25	0.20	>12.5	>12.5	1.56	6.25	1.56	3.12	>12.5	1.56 (≈ 2.71 µM)	246 to 248
Cc1ccc(N2CCN(c3ccc(-n4cnn(CC(O)(Cn5cncn5)c5ccc(F)cc5F)c4=O)cc3)CC2)cc1Cl (centres unmarked) [Compound 49, 2-[2-(2,4-Difluorophenyl)-2-hydroxy-3-(1H-1,2,4-triazol-1-yl)propyl]-4-{4-[4-(3-chloro-4-methylphenyl)-1-piperazinyl]phenyl}-3-(2H,4H)-1,2,4-triazolone]	0.25	0.25	0.06	<0.03	<0.03	<0.03	<0.03	<0.03	<0.03	<0.03	4.00	< 0.03	189 to 201
O=c1n(-c2ccc(N3CCN(c4ccc(Cl)c(Cl)c4)CC3)cc2)cnn1CC(O)(Cn1cncn1)c1ccc(F)cc1F (centres unmarked) [Compound 37, 2-[2-(2,4-Difluorophenyl)-2-hydroxy-3-(1H-1,2,4-triazol-1-yl)propyl]-4-{4-[4-(3,4-dichlorophenyl)-1-piperazinyl]phenyl}-3-(2H,4H)-1,2,4-triazolone]	0.12	0.25	0.06	<0.03	0.06	<0.03	0.06	<0.03	<0.03	<0.03	>16	< 0.03	194 to 196
O=c1n(-c2ccc(N3CCN(c4cccc(Cl)c4)CC3)cc2)cnn1CC(O)(Cn1cncn1)c1ccc(F)cc1F (centres unmarked) [Compound 57, 2-[2-(2,4-Difluorophenyl)-2-hydroxy-3-(1H-1,2,4-triazol-1-yl)propyl]-4-{4-[4-(3-chlorophenyl)-1-piperazinyl]phenyl}-3-(2H,4H)-1,2,4-triazolone]	0.25	0.50	0.25	<0.03	0.25	<0.03	0.12	<0.03	<0.03	<0.03	>16	0.06 (≈ 0.101 µM)	177 to 178
O=c1n(-c2ccc(N3CCN(c4ccc(F)cc4F)CC3)cc2)cnn1CC(O)(Cn1cncn1)c1ccc(F)cc1F (centres unmarked) [Compound 52, 2-[2-(2,4-Difluorophenyl)-2-hydroxy-3-(1H-1,2,4-triazol-1-yl)propyl]-4-{4-[4-(2,4-difluorophenyl)-1-piperazinyl]phenyl}-3-(2H,4H)-1,2,4-triazolone]	1.00	4.00	0.50	<0.03	0.06	<0.03	0.12	<0.03	<0.03	<0.03	>16	< 0.03	157 to 158
COc1ccccc1N1CCN(c2ccc(-n3cnn(CC(O)(Cn4cncn4)c4ccc(F)cc4F)c3=O)cc2)CC1 (centres unmarked) [Compound 42, 2-[2-(2,4-Difluorophenyl)-2-hydroxy-3-(1H-1,2,4-triazol-1-yl)propyl]-4-{4-[4-(2-methoxyphenyl)-1-piperazinyl]phenyl}-3-(2H,4H)-1,2,4-triazolone]	1.56	3.12	1.56	<0.02	0.40	0.05	12.50	12.50	0.20	0.80	>12.5	0.05 (≈ 0.0849 µM)	95 to 97
